# Entries after “also recorded” stand apart in the source; their conditions may differ.
# Assays:
# purified pDC [1] = assay: IL-6 and TNF-α production by TLR-activated pDC, ELISA and real-time PCR; type: cell-based, human; settings: CpG-A or CpG-B 0.5 μM; 16 hr; ELISA
# purified pDC [2] = assay: pDC viability, flow cytometry based LIVE/DEAD assay; type: cell-based, human; settings: CpG-C 1 μM plus various concentrations of LY; 20 h; listed as LY
# Procedure: Purified pDC were stimulated with CpG-C ISS (1 μM) either alone or in combination with various concentration of PI3K inhibitor LY. After 20 h, viability was assessed using a flow cytometry based viability assay (LIVE/DEAD Viability/Cytotoxicity Kit from Molecular Probe). Average of […] independent donors is shown.
# purified human pDC = assay: IFN-α production by TLR-activated purified pDC, ELISA; type: cell-based; settings: for IFN-α production: subunit-specific PI3K inhibitors
# NF-kB p65 (pS529) = assay: NF-kB p65 phosphorylation in pDC, flow cytometry; type: cell-based, human; settings: CpG-C 1 μM; LY 1 or 5 μM, NF-kB inhibitor 0.5 μM; 90 min
# Procedure: Accordingly, purified PDC were cultured with CpG-C ISS (1 μM) with or without PI3K inhibitor LY (1 μM or 5 μM) or NF-kB inhibitor (0.5 μM) for 90 min and analyzed by NF-kB flow cytometry. As described above, negatively purified pDC were stimulated with CpG-C and cells were immediately fixed with 4% of paraformaldehyde for 15 min a 37 C. Cells were then washed, permeabilized with PermBuffer III (BD bioscience) for 30 minutes on ice and stained with either Alexa-647 anti-human NF-kB p65 (pS529) for 30 min and then analyzed by flow cytometry.
smiles,measurement,setting,value
O=c1cc(N2CCOCC2)oc2c(-c3ccccc3)cccc12 [LY294002],IL-6 production in response to CpG-A and CpG-B,purified pDC [1],no significant inhibition
same,pDC viability,purified pDC [2],no negative effect; also recorded: does not affect
same,inhibition of IFN-α,"purified human pDC; LY concentrations as low as 0.08 μM, TLR9",50%
same,concentration of maximal effect on IFN-α production,"purified human pDC; both TLR7 and TLR9 ligands, 16 hr",1.25 µM
Cc1ccccc1-n1c(Cn2cnc3c(N)ncnc32)nc2cccc(C)c2c1=O [IC87114],IFN-α production,"purified human pDC; CpG-C 1 μM, 16 hr",inhibited
NC(=O)Nc1sc(-c2ccc(F)cc2)cc1C(N)=O [NF-kB inhibitor],NF-kB phosphorylation,NF-kB p65 (pS529),inhibited
O=C1NC(=O)/C(=C/c2ccc3c(c2)OC(F)(F)O3)S1 [AS604850],concentration at which an effect on IFN-α production is observed,"purified human pDC; CpG-C 1 μM, 16 hr, specificity for gamma subunit lost",> 20 µM
same,IFN-α production,"purified human pDC; CpG-C 1 μM, 16 hr",did not observe any effect

# Source: patent US20090131512A1, “Inhibition of type I in IFN production” (Dynavax Technologies Corp., priority 2007, published 2009)
